Patent US4410546A, “Antiallergic compositions” (Hisamitsu Pharmaceutical Co., Inc., priority 1981, dated 1983)
Like-named read-outs stand apart in the source and are kept apart here.

Legend:
[1] = tested on: reversed cutaneous anaphylaxis; assay: Reversed cutaneous anaphylaxis test on rats; format: in vivo, rat (male Wistar strain); conditions: 100 mg/kg oral, one hour prior to anti-rat rabbit serum; for inhibition at 100 mg/kg: 1 h, read-out: Inhibition rate
Procedure: In accordance with Yamazaki et al's method (Folia Pharmacol. Jap. 60, .sctn.65, 1964) obtained by improving Ungar et al's method (Arch. intern. Pharmacodyn. 123, 71, 1959), male Wistar strain rats, each weighing about 100 g, were tested as follows.
First of all, anti-rat rabbit serum was dissolved in such an amount in an 0.5% solution of Evans blue as to obtain a 15% solution of the serum. The thus obtained serum solution was injected intradermally in an 0.05 ml dose into each of 2 sites on one side of the back of each of the rats, while an 0.5% solution of Evans blue in saline solution was also injected similarly in an 0.05 ml dose into each of 2 sites on one side of the back thereof. Two hours later, the test animals were sacrificed and their skins were peeled. The skins so peeled were punched as the indication of the Evans blue spot to separate the edema (swollen) portions thereof which were then measured for their weights.
The strength of intumescence was calculated from the following formula: [formula] wherein Wi is the weight of the inflammatory portion and Ws is the weight of the control portion.
The antiallergic compounds of the formula (I) according to this invention were orally administered at a dose of 100 mg/kg to the rats one hour prior to the injection of the anti-rat rabbit serum.

[2] = tested on: homologous passive cutaneous anaphylaxis; assay: Homologous passive cutaneous anaphylaxis (Homolog. PCA) in rats; format: in vivo, rat (male Wistar strain); conditions: 200 mg/kg oral, 2 hours prior to antigen; for inhibition at 200 mg/kg: Rattus norvegicus
Source text: In accordance with the experimental method of Tada, T et al (J. Immunol., 106, 1002, 1971), a homologous passive cutaneous anaphylaxis (Homolog. PCA) reaction test was made on male Wistar strain rats, each weighing 160-170 g. In this test, DNP-As (Dinitrophenol coupled Ascaris suum extract) was obtained by reacting dinitrophenol (DNP) with protein extracted from Ascaris suum and was used as the antigen. Anti-DNP-As rats serum was prepaed using said antigen and was used as the antibody. […] After the lapse of 48 hours, the test animals were each given 1.0 ml of the antigen solution (2.0 mg as the amount of protein) containing 0.25% Evans blue by intravenous injection thereinto. Thirty (30) minutes later, they were sacrificed by exsanguination and their skins were peeled to measure the area of PCA blueing lesion. The amounts of dye extravasated were each measured in accordance with the method proposed by Harada, M. et al (J. Pharm. Pharmacol., 23, 218, 1971).
The compounds of the formula (I) were orally administered at a dose of 200 mg/kg to the rats two hours prior to the administration of the antigen thereto.

[3] = Acute toxicity test; conditions: mouse, in vivo; oral, mice, death in 3 weeks
Procedure: The compounds (of the formula (I)) to be tested were each suspended in a saline solution containing 0.5% of tragacanth gum and then orally administered to 6 ddY strain mice in a group, each mouse weighing 20-25 g. LD50 values were calculated from the death of mice in 3 weeks following the administration.

[4] = tested on: mesenteric mast cells; assay: Test for the degranulation of mesenteric mast cells in rats; format: cell-based, rat; conditions: 10^-4 g/ml; induced by 5×10^-6 g/ml DNP-As
Procedure: Rats were passively sensitized at their abdominal cavity by anti-DNP-As rat serum, 24 hours after which the mesenterium of the rats was enucleated. Then, 100 mg of the mesenterium were accurately weighed out, immersed in Tyrode's solution and preincubated at 37° C. for 5 minutes. Thereafter, the immersed solution was added to the antiallergic compounds of the formula (I) suspended in saline solution containing 0.5% of tragacanth gum, incubated at 37° C. for 20 minutes and then induced by 5×10^-6 g/ml of DNP-As. After 20 minutes' incubation, the solution was chilled in ice, and the mesenterium so reacted was dyed by the use of formalin (10% formaldehyde content) and an 0.1% tolwdine blue solution containing 0.1% of acetic acid, treated with ethanol and xylene and measured for degranulation by mirror inspection ([…]).

[5] = tested on: lung fragment of guinea pigs; assay: Histamine release on lung fragment of guinea pigs; format: cell-based, guinea pig; conditions: sodium salt, induced by ovalbumin 10^-6 g/ml
Procedure: The lungs of guinea pigs sensitized actively by ovalbumin were thoroughly irrigated by Tyrode's solution and then cut to obtain about 1-2 mm thick pieces. Two hundred (200) mg of the thus obtained fragments were accurately weighed out, immersed in Tyrode's solution and preincubated at 37° C. for 5 minutes. Then, the compounds of the formula (I) were each suspended in saline solution containing 0.5% of tragacanth gum, incubated at 37° C. for 20 minutes and induced by 10^-6 g/ml of ovalbumin.
Following 20 minutes' incubation, the siolutin was chilled in ice and then measured for the amount of released histamine in the medium and remaining in the tissue by the use of fluorometric assay in accordance with the Shore et al's method (J. Pharmacol. exp. Ther. 127, 182, 1959).

[6] = amount of dye, read-out: Inhibition rate (amount of dye extravasated)
[7] = area, read-out: Inhibition rate (area of dye extravasated)

Structure (SMILES)	Intumescence rate [1] [%]	inhibition at 100 mg/kg [1] [%]	Amount of dye extravasated [2] [μg/site]	Area of dye extravasated [2] [mm^2]	inhibition at 200 mg/kg [2, 6] [%]	inhibition at 200 mg/kg [2, 7] [%]	LD50 at 504 h [3] [mg/kg]	Degranulation rate [4] [%]	Inhibition rate (histamine release) ([5]; Conc.: 10^-4 g/ml) [%]	Inhibition rate (histamine release) ([5]; Conc.: 10^-5 g/ml) [%]
CCCCC[C@H]1CC[C@H](C(=O)O)CC1 [Compound 2, trans-4-n-pentylcyclohexanecarboxylic acid]	25.00 ± 2.77	41.3	2.49 ± 0.29	67.20 ± 2.57	82.7	32.2	> 2000	74.96 ± 2.91	92.2	83.4
CCCC[C@H]1CC[C@H](C(=O)O)CC1 [Compound 1, trans-4-n-butylcyclohexanecarboxylic acid]	29.81 ± 7.17	30	5.17 ± 0.32	76.87 ± 2.68	64	22.4	> 2000	71.45 ± 5.85	83.9	9.2
